Measurements as given in patent publication US8603966B2, “Amino acid-based compounds, their methods of use, and methods of screening” (The Administrators of the Tulane Educational Fund, priority 2009, dated 2013).
No end group written: not given here.

Assays:
[1] = High throughput screen: Tb3+/DPA leakage from liposomes; conditions: labeled peptide:lipid 1:300; % of Tb3+ released after 60 minutes vs Triton-X 100 solubilized control (100% leakage)
Protocol: (§1) High throughput screening: For high throughput screening, 100 mM lipid bilayer vesicles were prepared by extrusion in the presence of 50 mM Tb^3+/citrate and 10 mg/mL chymotrypsin. The external Tb^3+/citrate and chymotrypsin were removed by gel filtration. To make the screening solution, 50 μM dipicolinic acid (DPA) and 1 μM α 1-antitrypsin were added to the external medium. The lipid composition was about 90% palmitoyloleoylphostadidylcholine (POPC) and about 10% palmitoyloleoyl phostadidylglycerol (POPG).
(§2) The combinatorial labeled peptide library was screened to identify and measure properties of translocation and leakage (e.g., pore-formation). Beads from the synthesis were exposed to longwave UV to cleave the peptide from the resin. The reaction added an amine group to the labeled peptide at the site of cleavage, yielding a Gln residue. Beads were then separated into individual wells of a multiwell plate and the peptides were extracted into 5 μl of dry dimethylsulfoxide overnight. This cleaved approximately 0.75 nmol of labeled peptide from each bead, about half of the total labeled peptide on the bead. A chymotrypsin cleavage site was incorporated into the labeled peptides' design (FIG. 1) and when hydrolysis occurs the AMC fluorophore is released. The spectra of the free AMC fluorophore is red-shifted as compared to that of the peptide-AMC conjugate (FIG. 2). When a labeled peptide translocates, the chymotrypsin inside the vesicle catalyzes the hydrolysis of the peptide bond contributed by the AMC moiety (FIG. 3B). Translocation was monitored by the rate of accumulation of free AMC. In the case of leakage, interaction of the lanthanide metal terbium III (Tb^3+) with the aromatic chelator dipiccolinic acid (DPA) creates a complex that is fluorescent at low μM concentrations (FIG. 3A). By entrapping Tb^3+ and chymotrypsin inside the liposomes and then adding dipiccolinic acid and a chymotrypsin inhibitor to the external medium, a visual reporter system for translocation with and without membrane leakage was created that can detect as little as 5 pmol of labeled peptide.
(§3) To screen for solubility, the labeled peptide DMSO solution was diluted and incubated for 30 minutes before adding the screening solution. Free-AMC fluorescence was monitored at 450 nm emission (350 nm excitation) for 30 minutes and then the wells were read at 460 nm emission (280 nm excitation) for Tb^3+/DPA complex formation. Wells with the highest free AMC accumulation and/or Tb^3+/DPA fluorescence were sent to the Michigan State University Protein Core Facility for sequencing.
(§4) The screen was performed at a labeled peptide to lipid ratio of 1:300. […] In FIG. 4, the oval labeled “Leakage” indicates labeled peptides that show mostly leakage with a minimum of the relative rate of free AMC production. The oval labeled “Translocation” indicates labeled peptides that show a higher relative rate of free AMC production with a minimum of leakage. Roughly 24,000 beads were screened at 1:300 labeled peptide:lipid, a sequence coverage space of 90%. The labeled peptides indicating the highest translocation and highest % leakage were identified by Edman sequencing from the beads.
(§5) Free-AMC fluorescence was monitored at 450 nm emission (350 nm excitation) for 30 minutes and then the wells were read at 460 nm emission (280 nm excitation) for Tb^3+/DPA complex formation. Percent leakage is the % of Tb^3+ released from lipid vesicles after 60 minutes, compared to a Triton-X 100 detergent-solubilized control (100% leakage). […] Free AMC was determined in real time by monitoring the fluorescence of free AMC after vesicle addition using a BioTek Synergy II fluorescence plate reader. The two assays were performed on the same samples.

[2] = High throughput screen: translocation into liposomes (free AMC production by entrapped chymotrypsin); conditions: labeled peptide:lipid 1:300; rate divided by rate in chymotrypsin solution without inhibitor and liposomes
Protocol: as §1, §2, §3, §4, §5

[3] = tested on: Chinese Hamster Ovary (CHO) cells; experiment: Cell penetration by laser scanning confocal fluorescence microscopy; assay type: cell-based; conditions: for Cell Penetrating Half-time: SD ±10 min
Protocol: (§6) Laser Scanning Confocal Fluorescence Microscopy: Some translocating peptides were synthesized and labeled with the fluorescent dye TAMRA on either their amino terminus (N-labeled) or on a C-terminal cysteine residue (C-labeled). Live Chinese Hamster Ovary (CHO) cells were used to assess the ability of the labeled peptides to translocate across living cell membrane into the cells without causing toxicity.
CHO cells were incubated with peptide that was labeled on a C-terminal cysteine residue with the red fluorescent dye TAMRA. Cells and labeled peptide were incubated for 10 minutes in minimal media at 37° C. Cells were then washed to remove labeled peptide from the solution. The minimal media was replaced and 1 μM NBD (7-nitrobenz-2-oxa-1,3-diazol-4-yl) labeled lyso-phosphatidylthanolamine was added to the cells to label the plasma membrane. Labeled peptide concentrations for the panels are: A) 0 μM, B) 2 μM, C) 5 μM, and D) 10 μM. The scale bar represents 50 μm.
Panels A-G of FIG. 6 show representative CFM images monitoring the translocation of a labeled peptide with SEQ ID NO. 04 (synthesized with all D-amino acids for the chiral amino acids) in 10 minute intervals. CHO cells were incubated with the TAMRA-labeled peptide in minimal media and monitored over time at 25° C. without washing. The incubation times for the panels are: A) 5 min., B) 15 min., C) 25 min., D) 35 min., E) 45 min., F) 55 min., and G) 65 min. […] The scale bar represents 50 μm.
(§7) In this experiment, the externally added labeled peptide has not been washed away so the solution itself is fluorescent due to added TAMRA-labeled peptide. The black silhouettes in Panel A show the location of cells; before labeled-peptide entry, there is no fluorescence inside the cells.
All labeled peptides tested are able to translocate across living cell membranes and carry the large polar dye molecule TAMRA with them into the cell. Cell penetration was assessed by measuring TAMRA intensity inside CHO cells during incubation with the peptides in Table 4 and comparing intensity inside the cells with the external solution. Incubations were done at either 25° C. or 37° C., at concentrations listed. The half-times for penetration were determined, as shown in Table 5; the half-times have standard deviations of ±10 min. Based on final intensities inside the cells, all labeled peptides tested have similar cell penetrating activity at concentrations tested and at the temperatures tested. Toxicity was determined using the same conditions (e.g., solution and temperature) and concentrations as the cell penetration experiments. Toxicity was assessed by imaging at least 100 cells and counting cells with altered cell morphology, loss of confluence, or loss of adherence to substrate. In some experiments, the non-membrane permeable DNA dye SYTOX green was used to assess membrane integrity. In most cases, no measurable increase in toxicity or membrane integrity over control samples was detectable; this is indicated by the <5% in Table 5.

[4] = tested on: Chinese Hamster Ovary (CHO) cells; assay type: cell-based
Source text: as §6, §7
All labeled peptides tested are able to translocate across living cell membranes and carry the large polar dye molecule TAMRA with them into the cell. Cell penetration was assessed by measuring TAMRA intensity inside CHO cells during incubation with the peptides in Table 4 and comparing intensity inside the cells with the external solution. Incubations were done at either 25° C. or 37° C., at concentrations listed. The half-times for penetration were determined, as shown in Table 5; the half-times have standard deviations of ±10 min. […] Toxicity was determined using the same conditions (e.g., solution and temperature) and concentrations as the cell penetration experiments. […]

Substance	% Leakage [1] [%]	Relative Rate of Free AMC Production [2]	other results
RLILRQLLRGQF [SEQ ID NO: 17]	115	1.6	–
PLIYPFLRLGQF [SEQ ID NO: 09]	−0.2	1.7	–
PKILLFKLLGQF [SEQ ID NO: 12]	1.6	1.7	–
Pro-Leu-Ile-Tyr-Leu-Arg-Leu-Leu-Arg-Gly-Gln-Phe [SEQ ID NO: 04]	2.8	2.3	–
RLILRQLLLGQF [SEQ ID NO: 19]	102	1.6	–
PLGYLFLLRGQF [SEQ ID NO: 05]	6.0	1.9	–
PRILLRLLLGQF [SEQ ID NO: 16]	89	1.0	–
Arg-Arg-Ile-Leu-Leu-Gln-Leu-Leu-Leu-Gly-Gln-Phe (RRILLQLLLGQF; not fully specified (C-terminus); printed as Arg-Arg-Ile-Leu-Leu-Gln-Leu-Leu-Leu-Gly-Gln-Phe) [SEQ ID NO: 15 (C-labeled), peptide labeled with the dye TAMRA on a C-terminal cysteine]	–	–	Cell Penetrating Half-time ([3]; 37° C., 1.7-5 μM): <30 min
PLRLRFLLRGQF [SEQ ID NO: 07]	−4.5	1.6	–
RKRLLQLLLGQF [SEQ ID NO: 21]	84	0.7	–
RRILLQLLRGQF [SEQ ID NO: 10]	26	2.3	–
PKQLLRLLLGQF [SEQ ID NO: 20]	90	0.4	–
PLILLRLLRGQF [SEQ ID NO: 03]	1.7	2.1	–
Arg-Lys-Gly-Leu-Leu-Gln-Leu-Leu-Leu-Gly-Gln-Phe (RKGLLQLLLGQF; not fully specified (C-terminus); printed as Arg-Lys-Gly-Leu-Leu-Gln-Leu-Leu-Leu-Gly-Gln-Phe) [SEQ ID NO: 18 (C- labeled), peptide labeled with the dye TAMRA on a C-terminal cysteine]	–	–	Cell Penetrating Half-time ([3]; 37° C., 1.7-5 μM): <30 min
Pro-Leu-Ile-Tyr-Leu-Arg-Leu-Leu-Arg-Gly-Gln-Phe [SEQ ID NO: 04 (C-labeled)]	–	–	Cell Penetrating Half-time ([3]; 37° C., 1.7-10 μM): 20 min
RKGLLQLLLGQF [SEQ ID NO: 18]	92	0.3	–
RLILLFRRLGQF [SEQ ID NO: 06]	7.2	2.1	–
RKILLRLLRGQF [SEQ ID NO: 02]	−3.0	1.6	–
Pro-Leu-Ile-Tyr-Leu-Arg-Leu-Leu-Arg-Gly-Gln-Phe	–	–	half-time for cell entry ([3]; FIG. 6, 25° C., minimal media, without washing): 20 to 30 min; time at which cell penetration occurs ([3]; FIG. 6, 25° C., without washing): within a few minutes; toxicity (shape and coherence of the cells) [4]: toxicity is minimal
Arg-Arg-Ile-Leu-Leu-Gln-Leu-Leu-Arg-Gly-Gln-Phe (RRILLQLLRGQF; not fully specified (C-terminus); printed as Arg-Arg-Ile-Leu-Leu-Gln-Leu-Leu-Arg-Gly-Gln-Phe) [SEQ ID NO: 10 (C-labeled), peptide labeled with the dye TAMRA on a C-terminal cysteine]	–	–	Cell Penetrating Half-time ([3]; 25° C., 1.7-10 μM): 15 min
PRIYLRLLLGQF [SEQ ID NO: 14]	82	1.1	–
PRKLLQLLLGQF [SEQ ID NO: 13]	86	0.6	–
Pro-Leu-Ile-Leu-Leu-Arg-Leu-Leu-Arg-Gly-Gln-Phe (PLILLRLLRGQF; not fully specified (C-terminus); printed as Pro-Leu-Ile-Leu-Leu-Arg-Leu-Leu-Arg-Gly-Gln-Phe) [SEQ ID NO: 03 (C-labeled), peptide labeled with the dye TAMRA on a C-terminal cysteine]	–	–	Cell Penetrating Half-time ([3]; 37° C., 1.7-5 μM): <30 min
RLIRLFLLRGQF [SEQ ID NO: 08]	5.0	2.1	–
PLRLLRLLRGQF [SEQ ID NO: 11]	5.2	2.0	–
RRILLQLLLGQF [SEQ ID NO: 15]	105	0.0	–
RLIYLRLLRGQF [SEQ ID NO: 01]	24	3.4	–
